Data reported in ChEMBL document CHEMBL1909571, “Design, synthesis, and biological activity of a novel series of 2,5-disubstituted furans/pyrroles as HIV-1 fusion inhibitors targeting gp41” (Bioorg Med Chem Lett, 2011).
pEC50: −log10 of the molar value.

Experiments:
[1] = test system: Human immunodeficiency virus; assay: Antiviral activity against HIV 3B infected in MT2 cells assessed as inhibition of viral replication measuring p24 level by ELISA; format: functional, organism-based; details: Human immunodeficiency virus 1, 3B
[2] = Cytotoxicity against human MT2 cells by XTT assay; format: cell-based
[3] = Inhibition of GP41 six-helix bundle formation in HIV 3B after 30 mins by FN-PAGE analysis; set-up: species or system Human immunodeficiency virus 1
[4] = Inhibition of HIV1 3B gp41-mediated fusion of infected human H9 cells to uninfected human MT2 cells by fluorescence assay; format: cell-based; details: Human immunodeficiency virus 1, 3B
[5] = Selectivity index, ratio of CC50 for human MT2 cells to EC50 for HIV 3B infected in MT2 cells; format: toxicity, cell-based; details: read-out: Ratio CC50/EC50

| Compound | pEC50 [1] | CC50 [2] [µM] | pEC50 [3] | pEC50 [4] | selectivity ratio [5] |
| --- | --- | --- | --- | --- | --- |
| O=C(O)c1cccc(-c2ccc(/C=C3\NC(=O)N(CCc4ccccc4)C3=O)[nH]2)c1 | < 4.00 | 75.2 | 5.52 | 4.45 | – |
| O=C(O)c1cc(-c2ccc(/C=C3\NC(=O)N(CCc4ccccc4)C3=O)o2)ccc1Cl | 4.27 | 78.5 | 4.72 | < 4.00 | 1.5 |
| O=C(O)c1cc(-c2ccc(/C=C3\SC(=O)N(CCc4ccccc4)C3=O)o2)ccc1Cl | 4.82 | 68.2 | 4.53 | 4.57 | 4.5 |
| O=C(O)c1cccc(-c2ccc(/C=C3\CC(=O)N(CCc4ccccc4)C3=O)[nH]2)c1 | < 4.00 | 127 | < 4.00 | < 4.00 | – |
| O=C(O)c1cc(-c2ccc(/C=C3\CC(=O)N(CCc4ccccc4)C3=O)[nH]2)ccc1Cl | < 4.00 | 74.1 | 5.26 | < 4.00 | – |
| O=C(O)c1cc(-c2ccc(/C=C3\CC(=O)N(CCc4ccccc4)C3=O)o2)ccc1Cl | 5.16 | 118 | 4.81 | 4.36 | 17.2 |
| O=C(O)c1cc(-c2ccc(/C=C3\OC(=S)N(CCc4ccccc4)C3=O)o2)ccc1Cl | 4.51 | 282 | 4.56 | 4.30 | 9.1 |
| O=C(O)c1cc(-c2ccc(/C=c3\sc4nc(=O)c(-c5ccccc5)nn4c3=O)o2)ccc1Cl | 4.77 | > 320 | 4.89 | 4.34 | > 19.1 |
| O=C(O)c1cc(-c2ccc(/C=C3\SC(=S)N(CCc4ccccc4)C3=O)o2)ccc1Cl | 7.30 | 20.3 | 5.90 | 6.12 | 406 |
